Test results reported in patent US11149034B2, “Derivatives of luciferin and methods for their synthesis” (UNIVERSITY OF CAPE TOWN, priority 2017, dated 2021).
Values joined by “and” are separate entries in the source; they are usually repeats but may differ in a detail not shown here. Equal entries are not always repeated. Where two headings read alike, the source gives them in different places.

Experiments:
[1] = tested on: purified wild type (WT) luciferase (Photinus pyralis (luciferase) [Ppy Luc]); assay: Purified protein luminescence assays (Michaelis-Menten kinetics, relative emission intensity); format: biochemical; conditions: for luminescence output when treated with luciferase: 0.1 μM solution, luciferase in enzyme buffer, 10 nM; for Vmax / Km: Michaelis-Menten fit; for Km: apparent Km, WT luciferase, read-out: Km (App.)
Description: FIG. 10 is a relative luminescence emission intensity of the core luciferins (6-hydroxy, 6-amino, 6-thiol) at 0.1 μM substrate concentration and at a final luciferase concentration of 10 nM.
FIG. 11 illustrates luminescence output of 0.1 μM of protected D-thioluciferin sulfide, D-thioluciferin homodisulfide, and free D-thioluciferin at a final luciferase concentration of 10 nM (control readings were recorded for substrates in the absence of the luc enzyme). The RLU were determined in triplicate and are represented as the mean±SEM.
FIG. 13 is a Michaelis-Menten graph for D-Thioluciferin. […] The assays were performed in triplicate and are represented as the mean and each curve was fit to the Michaelis-Menten equation by nonlinear regression (GraphPad 5.0) to determine apparent Km and Vmax.
Luminescence assays were initiated by adding 30 μL of purified luciferase in enzyme buffer (20 mM Tris [pH 7.4], 0.1 mM EDTA, 1 mM TCEP, and 0.8 mg/mL BSA) to 30 μL 2× substrate in substrate buffer (20 mM Tris [pH 7.4], 0.1 mM EDTA, 8 mM MgSO4, and 4 mM ATP) in a black 96-well plate. Imaging was performed one minute after enzyme addition using a Xenogen® IVIS-100® at a final enzyme concentration of 10 nM and final substrate concentrations ranging from 0.122 to 250 μM. Data acquisition and analysis was performed with Living Image® software. Data are reported as total flux (p/s) for each ROI corresponding to each well of the 96-well plate.

[2] = Fluorescence spectrophotometry (excitation emission spectra); format: physicochemical; conditions: for fluorescence emission intensity: excitation at 390 nm, FIG. 15
Description: The free D-thioluciferin has a greater intensity relative to the sulfide which is promising for further sensor development.
Excitation and emission spectra were recorded on a Varian Cary Eclipse fluorometer equipped with a regulated temperature cell holder and Hellma, Suprasil® quartz fluorescence cuvettes of 10 mm pathlength and 1.5 mL volume capacity. Emission spectra were recorded at an excitation wavelength corresponding to previously recorded absorption maxima. Samples were prepared as a 0.1 mM DMSO solution, unless otherwise stated, and were scanned from 200 nm to 800 nm (Ex. Slit/Em. Slit 5 nm) at a scan rate of 600.00 nm/mn. Data were analysed using Scan Software Version 1.1.

[3] = tested on: purified firefly luciferase (10 nM) expressed from E. coli; assay: Inhibition of firefly luciferase by D-thioluciferin sulfide (thioacrylate); format: biochemical, Photinus pyralis; conditions: D-thioluciferin 10 μM, increasing sulfide
Description: FIG. 14 is a bar graph showing potential inhibitory effects of firefly luciferase by D-thioluciferin sulfide (thioacrylate). D-thioluciferin (10 μM) was treated with purified firefly luciferase (10 nM) expressed from E. coli and the luminescence recorded in the absence and presence of the sulifide.

[4] = tested on: purified firefly luciferase (luc) expressed from E. coli; assay: Bioluminescence emission scans; format: biochemical, Photinus pyralis; conditions: for bioluminescence emission wavelength: FIG. 7, 10 nM luciferase with 100 μM substrate; for λmax: bioluminescence emission with luciferase
Description: FIG. 7 is a bioluminescence emission spectrum for 10 nM luciferase with 100 μM D-thioluciferin.
Purified luciferase in enzyme buffer was rapidly injected into a cuvette containing substrate in substrate buffer to a final enzyme concentration of 100 nM and a final substrate concentration of 10 μM. The emission from 400 to 800 nm was recorded in a fluorimeter with closed excitation slits 10 s after injection.

WT luciferase (Ppy Luc) = assay: Burst kinetics assays / rates of reduction in luminescence; format: biochemical, Photinus pyralis
Description: FIG. 9 is a burst kinetics profile of purified 10 nM luciferase treated with 100 μM D-thioluciferin.
[…] […] Data acquisition was performed with SIS for 2020n v1.9.0 software. Data are reported as Relative Light Units (RLU). To correct for the wavelength sensitivity of the PMT in the 20/20n, total flux was also measured using the IVIS-100 as described above with a final enzyme concentration of 10 nM and a final substrate concentration of 250 μM. […] The correction factor of each enzyme/substrate pair was calculated by dividing the normalized IVIS data by the normalised 20/20n data. All 20/20n data were then multiplied by their respective correction factors.

[5] = tested on: purified firefly luciferase (luc) expressed from E. coli; conditions: cited from earlier work; for λmax (lit.): literature value
[6] = literature value; cited from earlier work
[7] = tested on: purified wild type (WT) luciferase (Photinus pyralis (luciferase) [Ppy Luc]); conditions: cited from earlier work
[8] = FIG. 10, 0.1 μM substrate, 10 nM luciferase
[9] = measured for 15 seconds post-specified time

| Structure (SMILES) | luminescence output when treated with luciferase [1] | ability to produce bioluminescence (luciferase substrate) ([1]; FIG. 11) | fluorescence emission intensity [2] | Vmax ([1]; 10 nM luciferase) | Km [1] | bioluminescence emission wavelength [4] | λmax [4] [nm] | time post-addition of rapid decrease in luminescent activity (WT luciferase (Ppy Luc)) [min] | Rate 5 min post-addition (rate of reduction in luminescence) (WT luciferase (Ppy Luc); [9]) [RLU/s] | Rate 20 minutes post addition (rate of reduction in luminescence) (WT luciferase (Ppy Luc); [9]) [RLU/s] | λmax (lit.) [5] [nm] | Fluorescence (lit.) [6] [nm] | emission signal, fold less intense compared to D-luciferin [1, 8] [fold] | also measured |
| --- | --- | --- | --- | --- | --- | --- | --- | --- | --- | --- | --- | --- | --- | --- |
| O=C(/C=C/Sc1ccc2nc(C3=N[C@@H](C(=O)O)CS3)sc2c1)OCc1ccccc1 [D-thioluciferin thioacrylate, (S,E)-2-(6-((3-(benzyloxy)-3-oxoprop-1-en-1-yl)thio)benzo[d]thiazol-2-yl)-4,5-dihydrothiazole-4-carboxylic acid] | negligible | neither of which appeared to be bioluminescent substrates | only weakly fluorescent |  |  |  |  |  |  |  |  |  |  | inhibition of luciferase ([3]; FIG. 14): strongly inhibitory; inhibition of luciferase ([3]; FIG. 14, listed as D-thioluciferin sulfide (thioacrylate)): decrease in emission intensity with increasing concentration of the sulfide |
| O=C(O)[C@H]1CSC(c2nc3ccc(O)cc3s2)=N1 [D-luciferin, (S)-2-(6-hydroxybenzo[d]thiazol-2-yl)-4,5-dihydrothiazole-4-carboxylate] |  |  |  | 57 ± 13 RLU/s | 8.3 µM and 8 µM | 547 nm | 553 | 10 | 9.300 ± 0.9815 | 0.3400 ± 0.05773 | 551 | 528 |  | relative luminescence emission intensity, fold greater than both D-aminoluciferin and D-thioluciferin [1, 8]: 100 fold; bioluminescence emission wavelength ([4]; listed as D-Luciferin): 557 nm; relative emission λmax ([5]; background statement): 594 nm |
| O=C(O)C1CSC(c2nc3ccc(SSc4ccc5nc(C6=NC(C(=O)O)CS6)sc5c4)cc3s2)=N1 [D-thioluciferin disulfide] | much higher luminescence output than its corresponding control | neither of which appeared to be bioluminescent substrates |  |  |  |  |  |  |  |  |  |  |  |  |
| O=C(O)[C@H]1CSC(c2nc3ccc(S)cc3s2)=N1 [D-thioluciferin, (S)-2-(6-mercaptobenzo[d]thiazol-2-yl)-4,5-dihydrothiazole-4-carboxylic acid] |  |  | strong fluorescence emission | 0.7597 ± 0.1071 RLU/s and 0.6661 ± 0.1522 RLU/s | 0.117 µM and 0.1 µM | 599 nm and 600 nm | 599 |  | 0.0067 | 0.0022 |  |  | 100 | emission, fold greater over the background [1]: > 100 fold; luminescence output, fold greater than protected thioacrylate (sulfide) ([1]; FIG. 11, 0.1 μM, 10 nM luciferase): 90 fold; Km ([1]; listed as D-Thioluciferin): 0.098 ± 0.0147 µM; period over which light of constant intensity is sustained (WT luciferase (Ppy Luc)): 20 min; burst kinetics profile (WT luciferase (Ppy Luc); FIG. 9, 10 nM luciferase, 100 μM substrate): robust initial burst of light followed by sustained light output of much lower intensity; Rate 1 min post-peak emission (rate of reduction in luminescence) (WT luciferase (Ppy Luc); [9]): 4.929 ± 0.1584 RLU/s; Fluorescence ([2]; fluorescence emission): 500 nm |
| Nc1ccc2nc(C3=N[C@@H](C(=O)O)CS3)sc2c1 [D-aminoluciferin, (S)-2-(6-aminobenzo[d]thiazol-2-yl)-4,5-dihydrothiazole-4-carboxylic acid] |  |  |  | 13 ± 2.2 RLU/s | 0.39 ± 0.08 µM | 593 nm | 597 | 1 | 1.216 ± 0.1305 | 0.1510 ± 0.007506 | 594 | 517 | 100 | Vmax (lit.) ([7]; literature value): 169 ± 2.6 photons/min; Km ([7]; literature value, read-out: Km (lit)): 0.62 ± 0.05 µM; Km ([7]; previously calculated, comparison, read-out: Km previously calculated): 0.39 to 0.69 µM |
